For one experiment, the target named is Cytochrome P450 2C19 (Homo sapiens, UniProt P33261). The experiment is described as follows: Cytochrome panel assay with activity outcomes. Panel member name: p450-cyp2c19 Compounds with AC50 equal or less than 10 uM are considered active. Type of experiment: functional. To be noted: read-out: AC50.
The target in the next experiment is Cytochrome P450 2D6 (Homo sapiens, UniProt P10635).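 Also: CYP2D6 member of a cytochrome P450 panel assay.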
A short description of experiment [1]: Luminescence Cell-Based Dose Response HTS to Identify Inhibitors of 5'UTR Stem-Loop Driven Prion Protein mRNA Translation in H4 Neuroglioblastoma Cells. [Related pubchem assays: 1827 (Project Summary), 1813 (Primary HTS)]. Type of experiment: functional.
The nature of experiment [2]: inhibitors of SNCA 5'UTR-driven reporter translation, confirmation, H4 neuroglioma cells, luminescence (AID 1988). Type of experiment: functional, cell-based.
Experiment [3] is described as follows: inhibitors of firefly luciferase expression or activity, dose response, H4 neuroglioma cells, luminescence (AID 1990). Type of experiment: functional, cell-based.
Experiment [4] has as its target FAD-linked sulfhydryl oxidase ALR (Homo sapiens, UniProt P55789). The experiment is described as follows: inhibitors of human ALR sulfhydryl oxidase, dose response, biochemical, H2O2 detection, luminescence, cherry-pick (AID 493248).
A further experiment deals with T1, Cytochrome P450 1A2 (Homo sapiens, UniProt P05177).
T1 sequence (P05177 whole entry): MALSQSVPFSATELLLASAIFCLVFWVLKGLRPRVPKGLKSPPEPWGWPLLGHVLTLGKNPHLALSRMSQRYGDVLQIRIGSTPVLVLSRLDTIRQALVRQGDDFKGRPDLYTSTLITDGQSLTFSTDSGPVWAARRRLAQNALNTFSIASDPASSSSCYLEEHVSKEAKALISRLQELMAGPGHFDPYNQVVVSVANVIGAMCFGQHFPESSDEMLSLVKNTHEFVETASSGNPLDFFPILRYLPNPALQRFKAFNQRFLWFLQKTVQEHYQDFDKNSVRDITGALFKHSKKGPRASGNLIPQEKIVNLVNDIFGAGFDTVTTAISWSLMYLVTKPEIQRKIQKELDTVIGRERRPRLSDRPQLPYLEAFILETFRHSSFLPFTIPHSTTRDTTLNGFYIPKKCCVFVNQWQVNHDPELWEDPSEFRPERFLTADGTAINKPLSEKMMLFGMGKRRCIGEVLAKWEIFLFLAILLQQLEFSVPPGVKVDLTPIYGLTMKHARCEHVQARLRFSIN

Experiment [5] can be described thus: inhibitors of intracellular T. cruzi replication, confirmation, NIH3T3 host cells, beta-gal luminescence (AID 2044).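 Also: intracellular parasites grown in NIH/3T3 mouse fibroblasts as host cells; luminescent beta-galactosidase reporter signal from transgenic T. cruzi replicating inside host cells; inhibitors lower the luminescence signal.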 Type of experiment: functional, cell-based.
Experiment [6] in a line: cytotoxicity toward NIH3T3 fibroblasts, dose response, counter-screen, cell-based, ATP luminescence, mouse fibroblasts (AID 2010).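 Also: cells exposed to compound for about 90 hours before reading.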 Type of experiment: functional. On the technique in general: The purpose of a counterscreen is to sort out artefacts and off-target activity.
The target in the next experiment is Cytochrome P450 3A4 (Homo sapiens, UniProt P08684).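 Also: CYP3A4 tested as one member of a cytochrome P450 panel screen.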
Experiment [7] has as its target T2, Rac GTPase-activating protein 1 (Homo sapiens, UniProt Q9H0H5).
T2 sequence (Q9H0H5 whole entry): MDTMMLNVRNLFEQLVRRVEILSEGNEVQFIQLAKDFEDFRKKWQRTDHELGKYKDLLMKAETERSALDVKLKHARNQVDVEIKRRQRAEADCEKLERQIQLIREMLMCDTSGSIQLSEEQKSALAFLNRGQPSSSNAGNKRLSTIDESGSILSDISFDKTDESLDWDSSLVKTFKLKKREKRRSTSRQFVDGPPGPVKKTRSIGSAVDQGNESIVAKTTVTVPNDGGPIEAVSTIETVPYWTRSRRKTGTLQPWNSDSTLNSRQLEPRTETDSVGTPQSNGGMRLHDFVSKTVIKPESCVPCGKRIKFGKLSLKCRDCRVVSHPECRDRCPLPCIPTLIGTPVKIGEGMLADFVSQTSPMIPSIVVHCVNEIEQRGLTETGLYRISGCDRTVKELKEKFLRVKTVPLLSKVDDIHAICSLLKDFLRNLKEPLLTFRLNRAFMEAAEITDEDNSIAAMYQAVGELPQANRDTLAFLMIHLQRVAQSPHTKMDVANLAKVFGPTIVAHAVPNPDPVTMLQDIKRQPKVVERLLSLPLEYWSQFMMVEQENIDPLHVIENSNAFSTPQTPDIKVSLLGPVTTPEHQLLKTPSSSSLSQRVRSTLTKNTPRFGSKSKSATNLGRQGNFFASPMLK
Put plainly: MgcRacGAP GTPase-activating activity inhibitors, confirmation, biochemical, ADP Hunter fluorescence, primary and confirmatory (AID 624330). Type of experiment: functional.

A short description of experiment [8]: Luminescence Cell-Based Dose Retest to Confirm Inhibitors of Cancer Stem Cells. [Related pubchem assays (depositor defined):AID2717, AID2721]. Type of experiment: functional. The settings on record: Homo sapiens.
Experiment [9] can be described thus: control 3'UTR Renilla luciferase suppression, dose response, counter-screen for Shn3 inhibitor project, cell-based, Clone20-Shn3RL, cherry-picked (AID 624133). Type of experiment: functional.
Experiment [10] is described as follows: Shn3 3'UTR reporter inhibitors, dose response, cell-based, Clone20 osteoblasts, firefly luciferase, cherry-picked (AID 624132).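 Also: firefly luciferase luminescence from reporter carrying the Shn3 3'UTR in osteoblasts.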 Type of experiment: functional.

The source made the active and inactive calls.

The text below walks through data of ChEMBL document CHEMBL1201862, “PubChem BioAssay data set” (2004).

One may read the AC50 as the concentration giving half of the maximal activity seen. A word on the EC50: it is the concentration that produces a half-maximal response. The IC50 is the concentration that inhibits the measured activity by half.

Chain of Cytochrome P450 3A4 (P08684 whole entry): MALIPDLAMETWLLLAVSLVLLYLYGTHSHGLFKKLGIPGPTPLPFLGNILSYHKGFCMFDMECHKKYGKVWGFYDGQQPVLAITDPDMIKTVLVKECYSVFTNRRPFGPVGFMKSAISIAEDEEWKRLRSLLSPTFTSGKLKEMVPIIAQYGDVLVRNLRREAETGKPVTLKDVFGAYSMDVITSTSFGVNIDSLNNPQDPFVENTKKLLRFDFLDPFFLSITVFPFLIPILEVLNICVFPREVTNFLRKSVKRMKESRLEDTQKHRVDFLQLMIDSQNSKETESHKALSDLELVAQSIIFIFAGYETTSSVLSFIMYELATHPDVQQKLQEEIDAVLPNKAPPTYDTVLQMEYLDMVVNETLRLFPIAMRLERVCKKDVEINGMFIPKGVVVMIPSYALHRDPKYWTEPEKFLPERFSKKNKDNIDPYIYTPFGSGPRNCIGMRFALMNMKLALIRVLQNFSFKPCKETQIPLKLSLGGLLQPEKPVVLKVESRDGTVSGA
Chain of FAD-linked sulfhydryl oxidase ALR (P55789 whole entry): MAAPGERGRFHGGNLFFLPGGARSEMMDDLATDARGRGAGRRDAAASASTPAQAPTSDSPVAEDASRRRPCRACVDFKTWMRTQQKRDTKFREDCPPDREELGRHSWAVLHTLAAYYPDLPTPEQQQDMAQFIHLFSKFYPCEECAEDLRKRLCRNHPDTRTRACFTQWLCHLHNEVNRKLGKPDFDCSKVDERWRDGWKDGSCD
Chain of Cytochrome P450 2D6 (P10635 whole entry): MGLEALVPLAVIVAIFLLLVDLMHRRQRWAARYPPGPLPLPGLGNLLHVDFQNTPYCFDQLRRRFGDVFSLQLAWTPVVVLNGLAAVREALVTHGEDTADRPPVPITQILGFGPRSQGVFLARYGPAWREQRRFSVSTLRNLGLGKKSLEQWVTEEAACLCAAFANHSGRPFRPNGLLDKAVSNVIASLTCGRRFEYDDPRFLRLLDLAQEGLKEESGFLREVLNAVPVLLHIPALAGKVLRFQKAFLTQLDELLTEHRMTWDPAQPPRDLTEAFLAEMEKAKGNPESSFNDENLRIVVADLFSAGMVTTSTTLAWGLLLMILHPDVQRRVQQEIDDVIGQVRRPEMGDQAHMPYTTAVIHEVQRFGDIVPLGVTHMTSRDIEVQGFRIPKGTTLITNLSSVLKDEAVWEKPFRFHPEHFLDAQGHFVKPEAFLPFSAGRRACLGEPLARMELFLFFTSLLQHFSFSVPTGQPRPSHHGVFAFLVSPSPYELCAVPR
Chain of Cytochrome P450 2C19 (P33261 whole entry): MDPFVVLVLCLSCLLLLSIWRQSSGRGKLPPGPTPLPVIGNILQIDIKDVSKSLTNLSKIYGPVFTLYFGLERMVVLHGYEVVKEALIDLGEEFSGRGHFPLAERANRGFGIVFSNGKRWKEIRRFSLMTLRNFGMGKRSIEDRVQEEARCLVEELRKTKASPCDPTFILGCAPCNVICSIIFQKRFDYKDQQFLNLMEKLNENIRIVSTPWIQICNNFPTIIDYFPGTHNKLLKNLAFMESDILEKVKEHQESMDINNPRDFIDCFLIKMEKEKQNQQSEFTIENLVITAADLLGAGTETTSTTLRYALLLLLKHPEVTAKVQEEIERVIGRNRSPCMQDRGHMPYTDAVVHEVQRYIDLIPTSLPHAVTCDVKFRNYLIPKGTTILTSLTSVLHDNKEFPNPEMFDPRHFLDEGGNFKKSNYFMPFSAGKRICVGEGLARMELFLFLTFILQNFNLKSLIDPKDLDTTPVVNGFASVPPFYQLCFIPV

In the case of `c1cc(CN2CCCC3(CCNCC3)C2)ccn1`, the AC50 at Cytochrome P450 2C19 and on Cytochrome P450 2D6 was 25.1 µM (inconclusive) throughout.

`CC(=O)Nc1ccc(S(=O)(=O)N(Cc2cc3ccc(C)cc3nc2O)CC2CCCO2)cc1` (centres undefined): the EC50 is 60.6 µM (active) in experiment [1], 11.8 µM (active) in experiment [2] and 16.8 µM (active) in [3].

Turning to `Cc1[nH]n(C(N)=S)c(=O)c1/N=N/c1ccc(Cl)cc1Cl`, the AC50 in [4] was 0.674 µM (active).

Consider `COc1ccc(OC)c(C(=O)N2CCC(n3nccc3NC(=O)CC(C)C)CC2)c1`, for which the EC50 in [1], in [2] and in experiment [3] was > 120 µM (not active) each time.

With `Nc1ccc2nc(NC(=O)C3CCCCC3)sc2c1`, the AC50 in experiment [4] is 0.957 µM (active).

As for `Cc1ccccc1NS(=O)(=O)c1ccc2ncc(C(=O)NCCCN3CCOCC3)c(O)c2c1`, the AC50 was 25.1 µM (inconclusive) at Cytochrome P450 2C19, 39.8 µM (inconclusive) on Cytochrome P450 1A2 and 20 µM (inconclusive) at Cytochrome P450 2D6.

Regarding `COc1ccc(NC(=O)CNC(=O)Cn2c(C)cc3ccccc3c2=O)c(OC)c1`, the EC50 in experiment [1], in experiment [2] and in [3] was > 120 µM (not active) in each case.

As for `COc1cc2c(cc1OC)C(c1ccc(Br)cc1)NCC2` (centres undefined), the EC50 is reported as > 60 µM (not active) in experiment [5]; > 120 µM (not active) in [1]; > 120 µM (not active) in experiment [2]; > 60 µM (not active) in experiment [6]; > 120 µM (not active) in [3].

Regarding `COC(=O)Cc1csc(N/C=C2/C(=O)N(c3cccc(C(F)(F)F)c3)C(=O)c3ccccc32)n1`, the EC50 is > 120 µM (not active) in experiment [1], 11.3 µM (active) in [2] and > 120 µM (not active) in experiment [3].

In the case of `Sc1nccc(-c2cccs2)n1`, in experiment [4], the AC50 is 0.664 µM (active).

As for `Cn1cccc1C(=O)N1CCC2(CCCN(C(c3ccccc3)c3ccccc3)C2)CC1`, the AC50 was 6.31 µM (inconclusive) at Cytochrome P450 3A4, 39.8 µM (inconclusive) on Cytochrome P450 2C19 and 10 µM (inconclusive) at Cytochrome P450 2D6.

Regarding `CN(C)C(=O)c1cn(N(C)c2ncc(C(F)(F)F)cc2Cl)c(=O)c2ccccc12`, the AC50 at Cytochrome P450 3A4 is 10 µM (inconclusive); at Cytochrome P450 2D6 it was 25.1 µM (inconclusive).

In the case of `C[C@]1(CC(=O)O)O[C@H]2CCCCC[C@H]2O1.NCc1ccccc1`, the results for the AC50 on Cytochrome P450 3A4 and on Cytochrome P450 2D6 were 0.251 µM (inconclusive) and 3.16 µM (inconclusive), respectively.

For `CN1CCN(/N=C/c2ccc(N(C)c3ccccc3)cc2)CC1`, the AC50 in [4] is 1.9 µM (active).

On to `O=C(NCCN1CCOCC1)c1csc2c1CCCCC2`, for which the AC50 was 20 µM (inconclusive) on Cytochrome P450 1A2 and 17.8 µM (inconclusive) on Cytochrome P450 2D6.

Take `CCN(CC)c1ccc(NC(=O)C2=CC=CN3CCS(=O)(=O)N=C23)cc1`: the AC50 in experiment [4] is 0.295 µM (active). In addition, the IC50 in [7] was 67 µM (active).

Consider `COc1ccc(Oc2nccc(-c3ccc(F)cc3)c2C#N)cc1`, for which the AC50 at Cytochrome P450 3A4 is 12.6 µM (inconclusive); at Cytochrome P450 1A2, 5.01 µM (inconclusive); at Cytochrome P450 2D6 it was 0.00562 µM (inconclusive).

Take `CN1Cc2cc(C(=O)c3ccccc3O)cnc2NC1=O`: the AC50 in experiment [4] is 6.59 µM (active).

For the compound `COC(=O)c1cccc(NC(=O)NC(=O)c2ccccc2Cl)c1`, the values for the EC50 in [1], in experiment [2] and in experiment [3] were 2.84 µM (active), 7.75 µM (active) and 2 µM (active), respectively.

Regarding `COC(=O)c1c(NC(=O)COc2ccc(Cl)cc2Cl)sc2c1CC(C)(C)NC2(C)C`, the 50% effective concentration (EC50) is > 120 µM (not active) in experiment [1], 9.53 µM (active) in [2] and 8.93 µM (active) in experiment [3]. In addition, the AC50 in experiment [8] was 5.58 µM (active).

On to `Cc1[nH]c2ccc(C(=O)N3CCCCC3)cc2c1C`, for which the AC50 in experiment [4] is 2.77 µM (active).

With `CC(C)n1cc(CN2CCCC(C(=O)Nc3cccc(-c4cc5ccccc5[nH]4)c3)C2)cn1` (centres undefined), the EC50 in [1] was > 120 µM (not active); in experiment [2] it was 30.6 µM (active); in [3] it was 14.5 µM (active).

Regarding `CCCCCn1c(SCCCC)nc2c1c(=O)[nH]c(=O)n2C`, the EC50 is > 120 µM (not active) in experiment [1], > 60 µM (not active) in experiment [2] and 17.1 µM (active) in experiment [3].

For `CCOc1ccccc1NC(=O)CCn1cccc1`, the EC50 in experiment [1], in experiment [2] and in experiment [3] was > 120 µM (not active) each time.

As to `CNC(C)(C)Cc1ccccc1` [MEPHENTERMINE], the AC50 at Cytochrome P450 2D6 was 10 µM (inconclusive).

Regarding `CC(=O)N1CCC(=NNC(=O)c2cccs2)CC1`, the AC50 in [4] is 13.5 µM (active).

With `COc1ccc2nc(S)[nH]c2c1`, the AC50 in [4] was 0.581 µM (active).

As to `O=C(C1CCC(=O)N1Cc1ccccc1Cl)N1CCN(c2cccc(Cl)c2)CC1` (centres undefined), the AC50 at Cytochrome P450 3A4 is 0.0355 µM (inconclusive); on Cytochrome P450 2D6 it was 14.1 µM (inconclusive).

On to `Cc1onc(-c2ccccc2)c1C(=O)NCCc1c[nH]c2ccccc12`, for which the AC50 on Cytochrome P450 2D6 was 12.6 µM (inconclusive).

Regarding `O=C(Nc1cc(F)ccc1F)N1CCN(c2ccnc3cc(Cl)ccc23)CC1`, the AC50 in experiment [9] is 10.2 µM (active); in experiment [10], 22.8 µM (active).

Turning to `COc1cc(C(=O)OCC(=O)NC2CCCCCC2)ccc1OCC(C)C`, the AC50 in experiment [9] is 35.9 µM (active).

Take `CC(NC(=O)C(=O)N1CCCCC1)C(c1cccs1)N1CCN(c2ccc(F)cc2)CC1` (centres undefined): the AC50 in experiment [4] is 1.44 µM (active).

With `CCN(Cc1ccncc1)C(=O)c1cc(Br)cc(Br)c1O`, the AC50 in experiment [4] was 1.25 µM (active).

Consider `CCS(=O)(=O)c1ccc2oc(Nc3cc(C)cc(C)c3)nc2c1`, for which the figures for the AC50 at Cytochrome P450 3A4 and on Cytochrome P450 2D6 were 28.2 µM (inconclusive) and 25.1 µM (inconclusive), respectively.

On to `Cc1c(Br)c(O)c(Br)c(O)c1/C=N/n1c(S)nnc1-c1ccccc1`, for which the AC50 in experiment [4] is 4.15 µM (active).

On to `Cc1cccc(C(=O)Nc2nnc(S(=O)(=O)N(C)Cc3ccco3)s2)c1`, for which the AC50 in [4] is 9.45 µM (active).

Regarding `COC(=O)[C@@]1(Cc2ccc(OC)cc2)[C@H]2c3cc(C(=O)N(C)C)n(Cc4ccc(C)o4)c3C[C@H]2CN1C(=O)c1ccccc1`, the AC50 at Cytochrome P450 2D6 was 39.8 µM (inconclusive).
